{
  "source": "patent US20050014268A1",
  "about": "“Genetic transformation using a PARP inhibitor” (Bayer BioScience NV, priority 1995, published 2005)",
  "tested_on": "Hypocotyl explants of Brassica napus",
  "experiment": "Agrobacterium-mediated transformation of oilseed rape hypocotyl explants with pTHW142 using niacinamide before, during or after infection",
  "format": "cell-based",
  "procedure": "Hypocotyl explants of Brassica napus were obtained as described in Example 3. Four groups of 200 hypocotyl explants each, were either not treated with niacinamide (indicated in table 4 as NONE), treated with 250 mg/l niacinamide for 1 day prior to infection with Agrobacterium (BEFORE), treated for 2 days during the infection with 250 mg/l niacinamide (DURING), or treated for 1 day after the Agrobacterium infection with 250 mg/l niacinamide (AFTER).\nAll hypocotyl explants were infected with Agrobacterium tumefaciens strain C58C1Rif carrying T-DNA vector pTHW142 and a helper Ti-plasmid pMP90 (Koncz and Shell, 1986 supra)(or a derivative thereof). Plasmid pTHW142 is a vector carrying a T-DNA comprising the following chimeric genes: • PSSU-bar-3′g7 • p35S-uidA-3′35S • In which uidA is a DNA encoding b-glucuronidase (Jefferson et al., 1986, Proc. Natl. Acad. Sci. USA 83, 8447-8451) and 3′ 35S is the 3′ untranslated end of the cauliflower mosaic virus 35S transcript. The complete sequence of the T-DNA of pTHW142 is presented in SEQ ID No 5.\nAfter the Agrobacterium infection, hypocotyl explants were transferred to selection medium A5, and if appropriate to A5 medium containing 250 mg/ll niacinamide. The hypocotyl explants that were placed on medium containing niacinamide were transferred after 1 day to niacinamide-free selection medium A5. After 5 weeks on selective medium the number of transformed calli was scored. b-glucuronidase expression was verified in the obtained calli using established protocols (Jefferson et al., 1986).",
  "data": [
    {"smiles": "NC(=O)c1cccnc1", "note": "[niacinamide]", "values": [
      {"measurement": "Transformation frequency (transformed calli, PPT-resistant and GUS-positive, per 100 hypocotyl explants)", "setting": "AFTER: 250 mg/l niacinamide for 1 day after the infection, scored after 5 weeks", "result": 29, "unit": "%"},
      {"measurement": "Transformation frequency (transformed calli, PPT-resistant and GUS-positive, per 100 hypocotyl explants)", "setting": "BEFORE: 250 mg/l niacinamide for 1 day prior to infection, scored after 5 weeks on selective medium", "result": 32, "unit": "%"},
      {"measurement": "Remarks (callus size and appearance)", "setting": "BEFORE, large: callus diameter of approximately 5 mm", "result": "large, green calli"},
      {"measurement": "Transformation frequency (transformed calli, PPT-resistant and GUS-positive, per 100 hypocotyl explants)", "setting": "DURING: 250 mg/l niacinamide for 2 days during the infection, scored after 5 weeks", "result": 16, "unit": "%"},
      {"measurement": "Remarks (callus size and appearance)", "setting": "DURING, very small: callus diameter of approximately 1-2 mm", "result": "very small, light green calli"},
      {"measurement": "transformation efficiency", "setting": "niacinamide treatment either before or after the Agrobacterium infection", "result": "significantly increase"}
    ]}
  ]
}
